Assay results from patent US20160331754A1, “THERAPIES FOR TREATING CANCERS” (GILEAD SCIENCES, INC., priority 2014, published 2016).
Values joined by “and” are separate entries in the source; they are usually repeats but may differ in a detail not shown here. Equal values may be shown once.

Assays:
[1] = test system: WIL2-S; test: ADCC LDH release assay, purified NK cells against WIL2-S target cells; type: cell-based, human; conditions: for Percentage of maximum obinutuzumab-mediated ADCC: Obinutuzumab 10 μg/mL, E:T=10:1, 4 h; for Percentage of maximum ADCC, rituximab: rituximab 10 μg/mL, FcγRIIIa 158F/F
Excerpt: PI3K isoforms may play a role in immune effector cells and FcγR signaling. The effects of Compound B on the immune effector functions of obinutuzumab and rituximab in lymphoma cell lines were examined. To characterize the antibody-dependent cellular cytotoxicity (ADCC), PBMCs were isolated from healthy individuals with FcγRIIIa genotypes of 158F/F, 158F/V, or 158V/V (Leuko Paks from AllCells, Alameda, Calif.) using Ficoll density gradient centrifugation. NK cells were enriched using a negative-selection immunomagnetic enrichment kit ([…] Technologies, Vancouver, British Columbia, Canada). Enriched NK cells and target cells WIL2-S, S-DHL-4, or Z-138 were separately pre-incubated for 1 hour with or without Compound B (1/2 dilutions from about 1 mM to about 1 nM). In the last 20 minutes of the pre-incubation, target cells were opsonized with or without rituximab or obinutuzumab (at 10 μg/mL, the saturating concentration with maximal ADCC) at indicated effector-target ratios (E:T). Palivizumab was used as an isotype control. NK and target cells were combined and incubated for 4 hours at 37° C. in 5% CO2. To determine ADCC, […] dehydrogenase (LDH) was measured using a cytotoxicity detection kit (Roche Applied Science, Indianapolis, Ind.). In some assays, antigen-independent cellular cytotoxicity (AICC) which represented spontaneous release by NK cell killing of target cells without antibodies were used as control.
LDH release assays were conducted at 4 hours using WIL2-S line as target and purified NK cells (E:T=10:1). The results (n=9) were normalized as % of maximum ADCC.

[2] = test system: Ri-1 DLBCL cells; test: Cell death assay (Annexin V/7AAD) in Ri-1 DLBCL cells; type: cell-based; conditions: 3 days
Protocol: Further, whole blood (WB) autologous B-cell depletion and cell-death induction assays were conducted as described in Mossner et al., Blood 115:4393-402, 2010. For cell death assay: Ri-1 DLBCL cells were seeded at 15,000 cells/well in 96-well plates. Cells were preincubated with Compound B or DMSO for 1 hour before the addition of antibody. Plates were incubated at 37° C. in a humidified CO2 chamber for 3 days. Cells were washed once with PBS and treated with Accutase for 15 minutes before being stained with Guava Nexin® reagent and analyzed on the Guava EasyCyte flow cytometer (Merck Millipore).
After 3 days of incubation, cell death was assessed by Annexin V/7AAD staining.

[3] = test system: pS6RP Ser235/236; test: Flow cytometry, TPO-activated S6RP phosphorylation in CD34+ progenitor cells from MF patients; type: cell-based, human; conditions: for p-S6RP (table title: percentage of Annexin-V positive cells): cells from Compound A-treated MF patients; for normalized percentage of TPO-activated S6RP phosphorylation (p-S6RP): TPO-treated vehicle=100
Protocol: PBMCs were isolated from whole blood of myelofibrosis (MF) patients who had not received treatments (i.e. naïve patients) or received ruxolitinib (i.e. rux-treated patients). The cells were treated with 0.02, 0.2, or 2.0 μM of Compound B or vehicle (0.1% DMSO in 0.1% FBS/RPMI) for 2 hours at 37° C. The cells were then fixed, permeabilized, and stained for FACS analysis. Antibodies specific to p-AKT Ser473 and pS6RP Ser235/236 were used to detect AKT phosphorylation (p-AKT) and S6RP phosphorylation (p-S6RP) in CD34^+/CD3^−/CD14^−/CD19/CD66^− (BD Biosciences) gated cells using flow cytometry. The percentage of basal (i.e. untreated with TPO) AKT and S6RP phosphorylation were normalized to vehicle control. A two-tailed paired t-test (GraphPad Prism) was used to calculate p-values. Values of p<0.05 were considered significant.
Also, PBMC cells from naïve or ruxolitinib treated patients were isolated and treated with Compound B and with TPO as described above. The percentage of TPO-activated AKT and S6RP phosphorylation were normalized to those of TPO-treated vehicle (“no TPO” values in Table 4). […] Also, the inhibition to PI3K signaling was dose-dependent to Compound B.
Similar studies were conducted with PI3K inhibitors Compounds C and D. PBMC from MF patients had received ruxolitinib (rux) and MF patient had received Compound A. The cells were treated with Compounds C or D at 0, 20.0, 200.0, 2000.0 nM for 2 hours at 37° C. Cells were treated with TPO for 10 minutes. The percentage of basal p-AKT and p-S6RP levels were normalized to vehicle control and those of TPO-treated were normalized to TPO-treated vehicle control. The PI3Kδ inhibitors Compound C is referred by the chemical names of (S)-2-(1-((9H-purin-6-yl)amino)ethyl)-6-fluoro-3-phenylquinazolin-4(3H)-one.

[4] = test system: NK-cell expression of CD107a and CD16; test: Antibody potency and NK-cell expression of CD107a and CD16; type: cell-based; conditions: data not shown
[5] = test system: p-AKT Ser473; test: Western blot, TPO-activated AKT phosphorylation in BaF3/MPL cells; type: cell-based; conditions: then TPO 50 ng/mL 10 min
Protocol: In addition, Compound B was examined for the effects on the PI3K signaling pathway by determining the levels of AKT and S6 phosphorylation with or without TPO activation. Two cell lines, BaF3/MPL and UT-7/TPO sensitive or responsive to TPO activation were used. The cells were starved (i.e. growing on medium having less FBS) in […] FBS/RPMI for two hours before treated with 0.1, 1.0, or 2.0 μM of Compound B or vehicle (0.1% DMSO in RPMI) for 2 hours at 37° C. To examine the TPO-activated phosphorylation, the cells were then treated or activated with 50 ng/mL of human recombinant TPO (Peprotech) for 10 minutes at 37° C. The TPO activation or treatment may reflect the conditions in diseased cells as the PI3K pathway is activated by TPO in myelofibrosis. After treating with compound and/or TPO, the cells were collected, lysed by lysis buffer (Cell Signaling), separated by SDS-PAGE, and analyzed by the Western blot using antibodies specific to p-AKT Ser473 or pS6 Ser235/236 (Cell Signaling). The phosphorylation levels in treated cells were calculated and compared to those of untreated cells (i.e. vehicle as negative control).

## CC[C@H](Nc1ncnc2[nH]cnc12)c1nc2cccc(F)c2c(=O)n1-c1ccccc1 [Compound B, (S)-2-(1-((9H-purin-6-yl)amino)propyl)-5-fluoro-3-phenylquinazolin-4(3H)-one]
[1]; Compound B 0.98 nM
  Percentage of maximum obinutuzumab-mediated ADCC: 99% and 91% and 109% and 94% and 96% and 103% and 104% and 101%
[1]; Compound B 1.95 nM
  Percentage of maximum obinutuzumab-mediated ADCC: 100% and 89% and 125% and 104% and 106% and 112% and 107%
[1]; Compound B 3.91 nM
  Percentage of maximum obinutuzumab-mediated ADCC: 91% and 84% and 102% and 113% and 105% and 108% and 110% and 103%
[1]; Compound B 7.81 nM
  Percentage of maximum obinutuzumab-mediated ADCC: 90% and 89% and 98% and 113% and 105% and 109% and 107% and 94%
[1]; Compound B 15.63 nM
  Percentage of maximum ADCC, rituximab: 92% and 108%
[1]; Compound B 31.25 nM
  Percentage of maximum obinutuzumab-mediated ADCC: 82% and 85% and 102% and 107% and 96% and 95%
  Percentage of maximum ADCC, rituximab: 86% and 109%
[1]; Compound B 62.5 nM
  Percentage of maximum obinutuzumab-mediated ADCC: 78% and 88% and 103% and 95% and 108% and 112% and 98%
[1]; Compound B 125 nM
  Percentage of maximum obinutuzumab-mediated ADCC: 84% and 87% and 104% and 97% and 111% and 110% and 105% and 94%
[1]; Compound B 250 nM
  Percentage of maximum obinutuzumab-mediated ADCC: 89% and 91% and 99% and 97% and 95% and 106% and 109% and 102%
[1]; Compound B 500 nM
  Percentage of maximum obinutuzumab-mediated ADCC: 79% and 83% and 94% and 92% and 96% and 106% and 104%
[1]; Compound B 1000 nM, obinutuzumab 10 μg/mL, FcγRIIIa 158V/V, n=2
  Percentage of maximum ADCC, obinutuzumab: 83% and 82%
[1]; Homo sapiens, 250 nM, FcγRIIIa 158V/V genotype, read-out: inhibition of obinutuzumab-mediated ADCC
  inhibition at […]: < 10%
[1]; n=2 per genotype, antibody 10 μg/mL
  effect on obinutuzumab-mediated ADCC in FcγRIIIa 158F/F or 158F/V genotypes: did not affect
[2]; 100 nM Compound B alone
  Percentage of total Annexin V+ cells: 28% and 27%
[2]; 300 nM Compound B alone
  Percentage of total Annexin V+ cells: 31% and 33%
[2]; 600 nM Compound B alone
  Percentage of total Annexin V+ cells: 35% and 37%
[3]; 0.02 μM
  p-S6RP (table title: percentage of Annexin-V positive cells): 61% and 69% and 64%
[3]; 0.02 μM, naïve MF patients
  normalized percentage of TPO-activated S6RP phosphorylation (p-S6RP): 57% and 50% and 86%
[3]; 0.02 μM, rux-treated MF patients
  normalized percentage of TPO-activated S6RP phosphorylation (p-S6RP): 55% and 79% and 60% and 59% and 53% and 62%
[3]; 0.2 μM
  p-S6RP (table title: percentage of Annexin-V positive cells): 52% and 54% and 42%
[3]; 0.2 μM, naïve MF patients
  normalized percentage of TPO-activated S6RP phosphorylation (p-S6RP): 48% and 42% and 69%
[3]; 0.2 μM, rux-treated MF patients
  normalized percentage of TPO-activated S6RP phosphorylation (p-S6RP): 35% and 56% and 55% and 50% and 32% and 44%
[3]; 2.0 μM
  p-S6RP (table title: percentage of Annexin-V positive cells): 30% and 34% and 25%
[4]; Compound B 256 nM with obinutuzumab or rituximab 0.01-1000 ng/mL
  reduction of the potency of both anti-CD20 antibodies: 0 to 15%
[4]; in 2 of 3 samples
  NK-cell degranulation, surface expression of CD107a: inhibited NK-cell degranulation
[5]; 0.1 μM 2 h
  reduced p-AKT levels vs vehicle: 51%
[5]; 1.0 μM 2 h
  reduced p-AKT levels vs vehicle: 64%
[5]; 2.0 μM 2 h
  reduced p-AKT levels vs vehicle: 67%
